Structures can show the parent of a compound that is named as a salt. Where two headings read alike, the source gives them in different places. Each block holds one compound with its values, some of them ahead of it.
Columns and labels:
[1] = Dynamic vapor sorption (DVS) water uptake; type: physicochemical; settings: 25° C.; for maximum water uptake: at 95% relative humidity
Experimental: Dynamic vapor sorption (“DVS”) measurements were obtained with a Projekt Messtechnik SPS11-100n water vapor sorption analyzer. The samples were placed into aluminum crucibles on a microbalance, and allowed to equilibrate at 25° C. and 50% relative humidity before initiating the following pre-defined humidity program at 25° C.: 50-95-0-50% relative humidity, and scanning with a 5% change in relative humidity per hour and with iso-humid equilibration periods at extreme values.

[2] = Thermogravimetry coupled to FTIR (TG-FTIR); type: physicochemical
Experimental: Measurements of thermogravimetry coupled to Fourier transform infrared spectroscopy (“TG-FTIR”) were obtained using a Netzsch Thermo-Microbalance TG 209 with a Bruker Vector 22 FT-IR Spectrometer using an aluminum crucible (with micro-hole or open), N2 atmosphere, heating rate of 10° C./min, and temperature range of 25-250° C.

[3] = Relative solid-state stability (Applicants' observations); type: physicochemical
Thermogravimetry (TG) = type: physicochemical
Experimental: Thermogravimetry (“TG”) measurements were obtained with a Perkin Elmer TGS 2 thermogravimetric analyzer using an aluminum crucible (open), N2 atmosphere, heating rate of 10° C./min, and temperature range of 25-500° C.

[4] = Desolvation / stability on drying under vacuum
Experimental: In one experiment, the S2 crystalline solvate was prepared by dissolving the Form II polymorph of 20,23-dipiperidinyl-5-O-mycaminosyl-tylonolide (245.7 mg) in tert-butyl methyl ether (0.5 ml), and slowly evaporating a portion of the solvent at ambient temperature. After no crystals formed, additional tert-butyl methyl ether was added, followed by seeding S2 solvate crystals from the first batch. The solvent was then allowed to evaporate completely. […] In further testing, the crystals were vacuum-dried at ambient temperature for 20 hours, and then dried again under vacuum for 24 hours at about 70° C.

Solubility in tBME = type: physicochemical

Compound: CC[C@H]1OC(=O)C[C@@H](O)[C@H](C)[C@@H](OC2OC(C)C(O)C(N(C)C)C2O)[C@@H](CCN2CCCCC2)C[C@@H](C)C(=O)/C=C/C(C)=C/[C@@H]1CN1CCCCC1 (stereo in doubt) [Form I polymorph]
maximum water uptake [1]: less than 1 % (by weight) | weight loss ([2]; temperature range of from 60 to 180° C., attributed to water loss): 0.6% | stability relative to other solid-state forms [3]: greater stability at ambient temperature than the other above-listed solid-state forms

Compound: CC[C@H]1OC(=O)C[C@@H](O)[C@H](C)[C@@H](OC2OC(C)C(O)C(N(C)C)C2O)[C@@H](CCN2CCCCC2)C[C@@H](C)C(=O)/C=C/C(C)=C/[C@@H]1CN1CCCCC1 (stereo in doubt) [Form II polymorph]
maximum water uptake [1]: about 2 % (by weight) | temperature at which decomposition began [2]: greater than 220 °C | weight loss ([2]; mainly in the temperature range of from 50 to 100° C., attributed to water loss): 0.7%

Compound: CC[C@H]1OC(=O)C[C@@H](O)[C@H](C)[C@@H](OC2OC(C)C(O)C(N(C)C)C2O)[C@@H](CCN2CCCCC2)C[C@@H](C)C(=O)/C=C/C(C)=C/[C@@H]1CN1CCCCC1 (stereo in doubt) [Form III polymorph]
water uptake ([1]; between 70 and 85% relative humidity): about 6% | weight loss ([2]; up to 220° C., most between 50 and 120° C.): 1.7% | temperature at which decomposition began (Thermogravimetry (TG)): greater than 270 °C | weight loss (Thermogravimetry (TG); up to 200° C.): less than 0.05%

Compound: CC[C@H]1OC(=O)C[C@@H](O)[C@H](C)[C@@H](OC2OC(C)C(O)C(N(C)C)C2O)[C@@H](CCN2CCCCC2)C[C@@H](C)C(=O)/C=C/C(C)=C/[C@@H]1CN1CCCCC1 (stereo in doubt) [THF S3 crystalline solvate]
weight loss due to liberation of solvent ([2]; at temperatures greater than 100° C.): about 8.1%

Compound: CC[C@H]1OC(=O)C[C@@H](O)[C@H](C)[C@@H](OC2OC(C)C(O)C(N(C)C)C2O)[C@@H](CCN2CCCCC2)C[C@@H](C)C(=O)/C=C/C(C)=C/[C@@H]1CN1CCCCC1 (stereo in doubt) [ethyl formate crystalline solvate]
temperature at which desolvation was nearly completed [2]: ~130 °C | weight loss due to liberation of solvent [2]: about 7.7%

Compound: CC[C@H]1OC(=O)C[C@@H](O)[C@H](C)[C@@H](OC2OC(C)C(O)C(N(C)C)C2O)[C@@H](CCN2CCCCC2)C[C@@H](C)C(=O)/C=C/C(C)=C/[C@@H]1CN1CCCCC1 (stereo in doubt) [tBME S2 crystalline solvate]
solubility (Solubility in tBME; organic solvent or mixture): 40 to 50 mg/mL | solubility in tBME relative to the Form II polymorph (Solubility in tBME; solvent tBME): at least one order of magnitude less | weight loss due to liberation of solvent [2]: 8.7-10%

Continued, in another order:

weight loss due to liberation of solvent [2]: 10%
Compound: CC[C@H]1OC(=O)C[C@@H](O)[C@H](C)[C@@H](OC2OC(C)C(O)C(N(C)C)C2O)[C@@H](CCN2CCCCC2)C[C@@H](C)C(=O)/C=C/C(C)=C/[C@@H]1CN1CCCCC1 (stereo in doubt) [diethyl ketone S1 crystalline solvate]

weight loss due to liberation of solvent ([2]; up to 200° C.): approximately 6.6%
Compound: CC[C@H]1OC(=O)C[C@@H](O)[C@H](C)[C@@H](OC2OC(C)C(O)C(N(C)C)C2O)[C@@H](CCN2CCCCC2)C[C@@H](C)C(=O)/C=C/C(C)=C/[C@@H]1CN1CCCCC1 (stereo in doubt) [ethanol S1 crystalline solvate]

weight loss due to liberation of solvent [2]: approximately 4.1%
Compound: CC[C@H]1OC(=O)C[C@@H](O)[C@H](C)[C@@H](OC2OC(C)C(O)C(N(C)C)C2O)[C@@H](CCN2CCCCC2)C[C@@H](C)C(=O)/C=C/C(C)=C/[C@@H]1CN1CCCCC1 (stereo in doubt) [ethyl acetate S1 crystalline solvate]
result of vacuum drying ([4]; ambient temperature): readily converted into the Form III polymorph

temperature at which desolvation was nearly completed [2]: ~160 °C | weight loss due to liberation of solvent [2]: about 8.4%
Compound: CC[C@H]1OC(=O)C[C@@H](O)[C@H](C)[C@@H](OC2OC(C)C(O)C(N(C)C)C2O)[C@@H](CCN2CCCCC2)C[C@@H](C)C(=O)/C=C/C(C)=C/[C@@H]1CN1CCCCC1 (stereo partly shown) [methyl acetate crystalline solvate]

stability ([4]; 60° C. at 1 mbar (absolute) for 1 day): exhibits stability | result of drying under vacuum ([4]; ambient temperature and 70° C.): no loss of solvent was observed
Compound: CC[C@H]1OC(=O)C[C@@H](O)[C@H](C)[C@@H](OC2OC(C)C(O)C(N(C)C)C2O)[C@@H](CCN2CCCCC2)C[C@@H](C)C(=O)/C=C/C(C)=C/[C@@H]1CN1CCCCC1 (stereo partly shown) [tBME S2 crystalline solvate]
stability relative to other solid-state forms ([3]; listed as tBME crystalline solvate): more stable than the ethyl acetate S1 crystalline solvate

From patent US8227429B2, “Macrolide synthesis process and solid-state forms” (Intervet International B.V., priority 2006, dated 2012)
